Values of other authors in patent US20170108488A1, “Array and Method of Use” (Quick Biology, Inc., priority 2015, published 2017).

Experiments:
SB-2 tumor xenograft = conditions: in combination with the MEK inhibitor GSK1120212; NRAS mutant melanoma
BRAF = BRAF (Homo sapiens, UniProt P15056, V600E); conditions: melanomas with BRAF activating mutations
BRAF, sequence (P15056 whole entry V600E): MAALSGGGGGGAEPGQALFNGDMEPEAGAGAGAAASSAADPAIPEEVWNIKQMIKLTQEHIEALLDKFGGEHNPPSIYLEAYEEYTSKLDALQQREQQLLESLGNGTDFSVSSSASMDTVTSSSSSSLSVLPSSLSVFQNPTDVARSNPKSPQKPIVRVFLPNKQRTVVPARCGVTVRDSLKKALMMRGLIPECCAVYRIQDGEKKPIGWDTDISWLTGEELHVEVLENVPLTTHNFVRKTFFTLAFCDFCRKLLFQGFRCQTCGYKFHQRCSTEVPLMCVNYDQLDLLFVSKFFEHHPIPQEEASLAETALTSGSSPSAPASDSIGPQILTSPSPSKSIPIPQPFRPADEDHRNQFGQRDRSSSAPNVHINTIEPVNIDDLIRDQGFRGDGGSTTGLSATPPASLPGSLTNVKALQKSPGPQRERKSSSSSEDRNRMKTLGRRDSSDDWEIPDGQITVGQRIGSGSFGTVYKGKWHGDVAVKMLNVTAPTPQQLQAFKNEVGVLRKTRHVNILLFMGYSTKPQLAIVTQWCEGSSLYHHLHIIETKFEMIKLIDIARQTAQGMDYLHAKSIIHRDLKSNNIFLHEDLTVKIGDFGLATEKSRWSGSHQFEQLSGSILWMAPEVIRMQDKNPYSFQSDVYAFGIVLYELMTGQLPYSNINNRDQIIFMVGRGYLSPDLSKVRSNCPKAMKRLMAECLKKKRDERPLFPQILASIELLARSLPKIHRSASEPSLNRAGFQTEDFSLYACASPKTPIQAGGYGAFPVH

Row | success rate in melanomas (BRAF) | Structure (SMILES) | tumor response in SB-2 tumor xenograft (SB-2 tumor xenograft)
1 | – | CC(=O)c1c(C)c2cnc(Nc3ccc(N4CCNCC4)cn3)nc2n(C2CCCC2)c1=O [PD-0332991] | tumor regression was achieved
2 | high success rate | CCCS(=O)(=O)Nc1ccc(F)c(C(=O)c2c[nH]c3ncc(-c4ccc(Cl)cc4)cc23)c1F [PLX4032] | –
